Legend:
[1] = test system: Hepatitis B virus; experiment: Antiviral activity against Hepatitis B virus in HepG2.2.15 cells assessed as inhibition of extracellular viral DNA replication at 0.2 uM after 6 days by real-time FQ-PCR analysis; type: functional; conditions: HepG2 2.2.15, 144 h
[2] = test system: Hepatitis B virus; experiment: Antiviral activity against Hepatitis B virus in HepG2.2.15 cells assessed as inhibition of extracellular viral DNA replication at 1 uM after 3 days by real-time FQ-PCR analysis; type: functional; conditions: HepG2 2.2.15, 72 h
[3] = test system: Hepatitis B virus; experiment: Antiviral activity against Hepatitis B virus in HepG2.CW cells assessed as inhibition of viral DNA replication at 1 uM after 9 days by real-time FQ-PCR analysis; type: functional; conditions: 216 h
[4] = test system: Hepatitis B virus; experiment: Antiviral activity against Hepatitis B virus in HepG2.2.15 cells assessed as inhibition of extracellular viral DNA replication at 5 uM after 3 days by real-time FQ-PCR analysis; type: functional; conditions: HepG2 2.2.15, 72 h
[5] = Cytotoxicity against human HepG2.2.15 cells by MTT assay; type: cell-based, HepG2 2.2.15
[6] = test system: Hepatitis B virus; experiment: Antiviral activity against Hepatitis B virus in HepG2.2.15 cells assessed as inhibition of extracellular viral DNA replication at 0.2 uM after 3 days by real-time FQ-PCR analysis; type: functional; conditions: HepG2 2.2.15, 72 h
[7] = test system: Duck hepatitis B virus; experiment: Antiviral activity against duck Hepatitis B virus infected in duck assessed as inhibition of viral DNA replication in serum at 0.2 mg/kg/day, po treatment initiated at day 5 after infection relative to control; type: functional; conditions: 120 h
[8] = test system: Duck hepatitis B virus; experiment: Antiviral activity against duck Hepatitis B virus infected in duck assessed as inhibition of viral DNA replication in serum at 0.04 mg/kg/day, po measured after 3 days of treatment withdrawal; type: functional; conditions: 72 h
[9] = test system: Duck hepatitis B virus; experiment: Antiviral activity against duck Hepatitis B virus infected in duck assessed as inhibition of viral DNA replication in liver at 0.04 mg/kg/day, po treatment initiated at day 10 after infection relative to control; type: functional; conditions: 240 h
[10] = test system: Hepatitis B virus; experiment: Antiviral activity against Hepatitis B virus in HepG2.2.15 cells assessed as inhibition of intracellular/extracellular viral DNA replication after 3 to 9 days by real-time FQ-PCR analysis; type: functional, organism-based; conditions: HepG2 2.2.15
[11] = test system: Hepatitis B virus; experiment: Antiviral activity against Hepatitis B virus in HepG2.2.15 cells assessed as inhibition of intracellular viral DNA replication at 1 uM after 9 days by real-time FQ-PCR analysis; type: functional; conditions: HepG2 2.2.15, 216 h
[12] = test system: Hepatitis B virus; experiment: Antiviral activity against Hepatitis B virus in HepG2.2.15 cells assessed as inhibition of intracellular viral DNA replication at 1 uM after 3 days by real-time FQ-PCR analysis; type: functional; conditions: HepG2 2.2.15, 72 h
[13] = organism: Rattus norvegicus; experiment: Drug metabolism in rat urine sample assessed as 1-((2R,3S,4R,5R)-5-azido-3-fluoro-4-hydroxy-5-(hydroxymethyl)tetrahydrofuran-2-yl)-4-(2,3-dihydroxycyclopropylamino)pyrimidin-2(1H)-one formation by LC-MS/MS analysis; type: ADME, organism-based; conditions: in vivo
[14] = test system: Rattus norvegicus; experiment: In vivo drug metabolism in rat urine sample assessed as 1-((2R,3S,4R,5R)-5-azido-3-fluoro-4-hydroxy-5-(hydroxymethyl)tetrahydrofuran-2-yl)-4-(2-hydroxycyclopropylamino)pyrimidin-2(1H)-one formation by LC-MS/MS analysis; type: ADME, organism-based
[15] = test system: Mus musculus; experiment: Toxicity in KM mouse assessed as micronucleus frequency in bone marrow polychromatic erythrocyte at 40 mg/kg, po single dose after 48 hrs (reference value: 2.20 +/- 0.84 %); type: organism-based; conditions: in vivo
[16] = test system: Duck hepatitis B virus; experiment: Antiviral activity against duck Hepatitis B virus infected in duck assessed as inhibition of viral DNA replication in serum at 0.04 mg/kg/day, po treatment initiated at day 5 after infection relative to control; type: functional; conditions: 120 h
[17] = organism: Rattus norvegicus; experiment: Drug metabolism in rat urine sample assessed as 4-amino-1-((2R,3S,4R,5R)-5-azido-3-fluoro-4-hydroxy-5-(hydroxymethyl)tetrahydrofuran-2-yl)pyrimidin-2(1H)-one formation by NMR spectrum; type: ADME, organism-based; conditions: in vivo
[18] = test system: Duck hepatitis B virus; experiment: Antiviral activity against duck Hepatitis B virus infected in duck assessed as inhibition of viral DNA replication in liver at 1 mg/kg/day, po treatment initiated at day 10 after infection relative to control; type: functional; conditions: 240 h
[19] = test system: Duck hepatitis B virus; experiment: Antiviral activity against duck Hepatitis B virus infected in duck assessed as inhibition of viral DNA replication in liver at 1 mg/kg/day, po measured after 3 days of treatment withdrawal; type: functional; conditions: 72 h
[20] = test system: Hepatitis B virus; experiment: Antiviral activity against Hepatitis B virus in HepG2.2.15 cells assessed as inhibition of intracellular viral DNA replication at 0.2 uM after 3 days by real-time FQ-PCR analysis; type: functional; conditions: HepG2 2.2.15, 72 h
[21] = test system: Duck hepatitis B virus; experiment: Antiviral activity against duck Hepatitis B virus infected in po dosed duck assessed as inhibition of viral DNA replication in liver; type: functional, organism-based
[22] = test system: Hepatitis B virus; experiment: Antiviral activity against Hepatitis B virus in HepG2.2.15 cells assessed as inhibition of extracellular viral DNA replication at 0.2 uM after 9 days by real-time FQ-PCR analysis; type: functional; conditions: HepG2 2.2.15, 216 h
[23] = test system: Hepatitis B virus; experiment: Antiviral activity against Hepatitis B virus in HepG2.2.15 cells assessed as inhibition of intracellular viral DNA replication at 5 uM after 9 days by real-time FQ-PCR analysis; type: functional; conditions: HepG2 2.2.15, 216 h
[24] = test system: Hepatitis B virus; experiment: Antiviral activity against Hepatitis B virus in HepG2.2.15 cells assessed as inhibition of intracellular viral DNA replication at 0.2 uM after 9 days by real-time FQ-PCR analysis; type: functional; conditions: HepG2 2.2.15, 216 h
[25] = test system: Hepatitis B virus; experiment: Antiviral activity against Hepatitis B virus in HepG2.2.15 cells assessed as inhibition of extracellular viral DNA replication at 1 uM after 9 days by real-time FQ-PCR analysis; type: functional; conditions: HepG2 2.2.15, 216 h
[26] = test system: Duck hepatitis B virus; experiment: Antiviral activity against duck Hepatitis B virus infected in duck assessed as inhibition of viral DNA replication in serum at 0.04 mg/kg/day, po treatment initiated at day 10 after infection relative to control; type: functional; conditions: 240 h
[27] = test system: Duck hepatitis B virus; experiment: Antiviral activity against duck Hepatitis B virus infected in duck assessed as inhibition of viral DNA replication in liver at 0.2 mg/kg/day, po treatment initiated at day 5 after infection relative to control; type: functional; conditions: 120 h
[28] = test system: Mus musculus; experiment: Toxicity in KM mouse assessed as peripheral WBC number in blood per liter at 40 mg/kg, po single dose after 48 hrs (reference value: 11.10 x 2.69/L x 10^-9); type: organism-based; conditions: in vivo
[29] = test system: Rattus norvegicus; experiment: In vivo drug metabolism in rat bile sample assessed as 1-((2R,3S,4R,5R)-5-azido-3-fluoro-4-hydroxy-5-(hydroxymethyl)tetrahydrofuran-2-yl)-4-(2-hydroxycyclopropylamino)pyrimidin-2(1H)-one formation by LC-MS/MS analysis; type: ADME, organism-based
[30] = test system: Mus musculus; experiment: Toxicity in KM mouse assessed as peripheral WBC number in blood per liter at 10 mg/kg/day, po 5 doses (reference value: 7.47 +/- 33.77 /L x 10^-9 cells); type: organism-based; conditions: in vivo
[31] = test system: Duck hepatitis B virus; experiment: Antiviral activity against duck Hepatitis B virus infected in duck assessed as inhibition of viral DNA replication in serum at 1 mg/kg/day, po measured after 3 days of treatment withdrawal; type: functional; conditions: 72 h
[32] = test system: Mus musculus; experiment: Acute toxicity in KM mouse assessed as listlessness at 300 mg/kg, iv suspended in normal saline; type: organism-based; conditions: in vivo
[33] = test system: Hepatitis B virus; experiment: Antiviral activity against Hepatitis B virus in HepG2.2.15 cells assessed as inhibition of extracellular viral DNA replication at 5 uM after 9 days by real-time FQ-PCR analysis; type: functional; conditions: HepG2 2.2.15, 216 h

[N-]=[N+]=N[C@]1(CO)O[C@@H](n2ccc(NC3CC3)nc2=O)[C@@H](F)[C@@H]1O
inhibition at 0.2 µM [1]: 52%
inhibition at 1 µM [2]: 54%
inhibition at 1 µM [3]: 86.6%
inhibition at 5 µM [4]: 53%
CC50 [5]: 391 µM
inhibition at 0.2 µM [6]: 33.8%
inhibition in vivo at 0.2 mg/kg/day [7]: 62.5%
inhibition in vivo at 0.04 mg/kg/day [8]: 47.1%
inhibition in vivo at 0.04 mg/kg/day [9]: 62.8%
inhibition [10]: Dose-dependent effect
inhibition at 1 µM [11]: 56.9%
inhibition at 1 µM [12]: 39.2%
Drug metabolism [13]: metabolite_detected
Drug metabolism [14]: metabolite_detected
Activity [15]: 1.4%
inhibition in vivo at 0.04 mg/kg/day [16]: 48.1%
Drug metabolism [17]: metabolite_detected
inhibition in vivo at 1 mg/kg/day [18]: 82.1%
inhibition in vivo at 1 mg/kg/day [19]: 76.1%
inhibition at 0.2 µM [20]: 20.6%
inhibition [21]: Dose-dependent effect
inhibition at 0.2 µM [22]: 52.1%
inhibition at 5 µM [23]: 68.2%
inhibition at 0.2 µM [24]: 46.5%
inhibition at 1 µM [25]: 76.2%
inhibition in vivo at 0.04 mg/kg/day [26]: 43.4%
inhibition in vivo at 0.2 mg/kg/day [27]: 52.7%
Activity [28]: 9.13 ×10⁹ /L
Drug metabolism [29]: metabolite_detected
Activity [30]: 8.09 ×10⁹ /L
inhibition in vivo at 1 mg/kg/day [31]: 69.9%
Activity [32]: Toxic
inhibition at 5 µM [33]: 87.6%
